The record followed here is PubChem BioAssay AID789 (SRMLSC, 2007).

Active and inactive are the calls of the source. The rule behind the calls is not given here.

Assay [1] deals with S. cerevisiae apl2Δ mutant growth inhibition. Description: growth inhibition of apl2Δ yeast, dose response, selectivity assay for post-Golgi transport modulator project, S. cerevisiae, secondary screen, background strain comparison (AID 789).
Experiment in assay [2]: as above
The conditions noted are these: S. cerevisiae background (wild-type parent) strain growth inhibition.

Usually IC50 stands for the point on the concentration scale where inhibition reaches its midpoint.

Turning to `O=[N+]([O-])c1cc(C(F)(F)F)ccc1N/N=C/c1cc2ccccc2nc1Cl`, the values for the IC50 in assay [1] and in assay [2] were > 10 µM (inactive) and above 10 µM, respectively.
The like results for `CCC(=O)N(CCO)Cc1cc2ccc(C)c(C)c2[nH]c1=O` were, in that order, > 10 µM (inactive) and above 10 µM.
For `CCOC(=O)c1c(CN2CCCCC2C)oc2ccc(OC)cc12` (stereo not drawn), in that order: > 10 µM (inactive) and above 10 µM.
Regarding `CC1CC(C)CN(CCOc2ccc(Cl)cc2Cl)C1` (stereo not drawn), the figures for the IC50 in assay [1] and in assay [2] were > 10 µM (inactive) and above 10 µM, respectively.
The like results for `COc1ccc2oc(=O)c(-c3nnc(NCc4ccco4)s3)cc2c1` were, in that order, > 10 µM (inactive) and above 10 µM.
The like results for `COc1ccc(NC(=O)c2ccc(CN3CCN(c4ccccc4)CC3)cc2)cc1` were, in that order, > 10 µM (inactive) and above 10 µM.
In the case of `N=c1c2c(-c3ccccc3)c(-c3ccccc3)n(Cc3ccco3)c2ncn1Cc1ccco1`, the IC50 was 16.7 µM in assay [1] and 21.5 µM in assay [2].
For `Cc1nnc(-c2cccc(Br)c2)c2cn(-c3ccccc3Cl)nc12`, in that order: > 10 µM (inactive) and 25.9 µM.
The like results for `Cc1ccc(-c2csc3nnc(SCC(=O)Nc4cccc(C)n4)n23)cc1` were, in that order, > 10 µM (inactive) and above 10 µM.
Turning to `CCOCCCNC(=O)C1CCN(C(=O)N(C)C)CC1`, the IC50 in assay [1] is > 10 µM (inactive); in assay [2], above 10 µM.
`CC1CC(C)CN(CC(C)(C)NS(=O)(=O)c2ccc(Cl)cc2)C1` (stereo not drawn): the IC50 in assay [1] was > 10 µM (inactive); in assay [2], above 10 µM.
The like results for `CCc1cc2c(=O)c(Oc3ccccc3F)c(C)oc2c(CN(C)C)c1O` were, in that order, > 10 µM (inactive) and above 10 µM.
Consider `CCc1ccc(C(=O)/C=C/c2ccc([N+](=O)[O-])o2)cc1`, for which the IC50 in assay [1] is > 10 µM (inactive); in assay [2], 20.7 µM.
Consider `C=C(C)C1CC=C(CN2CC(C)OC(C)C2)CC1` (stereo not drawn), for which the values for the IC50 in assay [1] and in assay [2] were > 10 µM (inactive) and above 10 µM, respectively.
The like results for `COCCCn1c2nc3ccccc3nc2c2c(=O)n(-c3ccccc3OC)cnc21` were, in that order, > 10 µM (inactive) and above 10 µM.
For `O=C(Nc1nnc(-c2ccc3c(c2)CCCC3)o1)c1ccccc1Cl`, in that order: > 10 µM (inactive) and 10.7 µM.
The like results for `COc1cccc(NC(=O)c2ccc(CN3CCN(c4ccccc4)CC3)cc2)c1` were, in that order, > 10 µM (inactive) and above 10 µM.
For the compound `Cc1ccc(C)c(C(=O)NCc2ccncc2)c1`, the IC50 in assay [1] is > 10 µM (inactive); in assay [2], above 10 µM.
For `N#CC1=C(N)C(C#N)(C#N)C(c2cccnc2)C2CC(c3ccccc3)CC=C12` (stereo not drawn), in that order: 4.06 µM (inactive) and 2.97 µM.
Take `Cc1cccc(OCC(=O)O/N=C(\N)Cc2ccc(Cl)cc2)c1`: the IC50 is > 10 µM (inactive) in assay [1] and 10.4 µM in assay [2].
`Cc1cccc(N2CCN(CC(=O)Nc3nccs3)CC2)c1C`: the IC50 in assay [1] was > 10 µM (inactive); in assay [2], above 10 µM.
Regarding `COc1ccc(NC(=O)N(C2CCCCC2)C(C)c2cccnc2)c(OC)c1` (stereo not drawn), the half-maximal inhibitory concentration (IC50) in assay [1] is 12.6 µM; in assay [2] it was 16.7 µM.
`Cc1cc(C(C)(C)C)ccc1OCCN1CCCC1`: the IC50 in assay [1] was > 10 µM (inactive); in assay [2], above 10 µM.
For `Cc1ccc(C(=O)NCc2occc2C(=O)O)o1`, in that order: > 10 µM (inactive) and above 10 µM.
The like results for `c1ccc(-c2ccc(-c3cnc4n3CCCCC4)cc2)cc1` were, in that order, > 10 µM (inactive) and above 10 µM.
For `CCOC(=O)C1=C(CSc2nc(-c3ccccc3)ccc2C#N)OC(N)=C(C#N)C1c1cccnc1` (stereo not drawn), in that order: > 10 µM (inactive) and above 10 µM.
As to `CCN(CC)c1nc2cc(OC)ccc2cc1C#N`, the results for the IC50 in assay [1] and in assay [2] were > 10 µM (inactive) and above 10 µM, respectively.
As to `CN1/C(=C/C2CC(=O)NC2=O)C(C)(C)c2ccccc21` (stereo not drawn), the IC50 in assay [1] is > 10 µM (inactive); in assay [2] it was above 10 µM.
For `CCc1cc(=O)oc2cc(C)c(CN3CCCC(C)C3)c(O)c12` (stereo not drawn), in that order: > 10 µM (inactive) and above 10 µM.
